Reference: patent US10487291B2, “Detergent or cleaning agent having GLDA-enhanced antimicrobial effect” (Henkel AG & Co. KGaA, priority 2016, dated 2019)

System: Pseudomonas aeruginosa
Experiment: Test for determining the reduction of Pseudomonas aeruginosa according to EN 1276
Format: cell-based
Conditions: for reduction of Pseudomonas aeruginosa (antibacterial effect): EN 1276
Procedure: The washing agent was used in a test for determining the reduction of Pseudomonas aeruginosa according to EN 1276. The obtained value served as a reference. 0.10 wt. % GLDA or 0.50 wt. % were then added to the washing agent and likewise used in the test for determining the reduction of Pseudomonas aeruginosa according to EN 1276. The all-purpose cleaner was used in a test for determining the reduction of Pseudomonas aeruginosa according to EN 1276. The obtained value served as a reference. 0.10 wt. % GLDA or 0.50 wt. % were then added to the all-purpose cleaner and likewise used in the test for determining the reduction of Pseudomonas aeruginosa according to EN 1276.

Q: Which “reduction of Pseudomonas aeruginosa (antibacterial effect)” value (shortened to “reduction of Pseudomonas aeruginosa”) (Table 1, Example 1, concentration glutamic acid diacetic acid 0.10% (according to the invention)) does the source give for `O=C(O)CC[C@@H](C(=O)O)N(CC(=O)O)CC(=O)O` [Glutamic acid diacetic acid (GLDA), glutamic acid-N,N-diacetic acid] here?
A: 7.65E+00

Q: What about the “reduction of Pseudomonas aeruginosa” value (Table 1, Example 1, concentration glutamic acid diacetic acid 0.50% (according to the invention)) of the same molecule?
A: 6.90E+01

Q: What about the “reduction of Pseudomonas aeruginosa” value (Table 2, Example 2, concentration glutamic acid diacetic acid 0.10% (according to the invention)) of the same molecule?
A: 7.65E+00

Q: And the “reduction of Pseudomonas aeruginosa” value (Table 2, Example 2, concentration glutamic acid diacetic acid 0.50% (according to the invention))?
A: 6.90E+01

Q: What about the “antimicrobial / antibacterial effect (in words)” value (substance on its own (GLDA itself; agent exclusively comprising QAC)) of the same molecule?
A: does not have an antimicrobial effect
